US20080009448A1, “Peptide Derivative” (priority 2006, published 2008)

Assays:
[1] = system: MSU induced knee osteoarthritis pain; test: MSU induced knee osteoarthritis pain model, hind leg paw-pressure ratio; assay type: in vivo, rat; design: key to AUC of time-course variation of anti-nociceptive activity: AUC of the time course of anti-nociceptive activity as % MPE; settings: for activity lasting-time: orally administered
Protocol: Experimental animal, male SD type rats, weighing the body weight in the range of 170 to 190 g, were used for the studies. The animals had been kept under constant conditions (room temperature 23±1° C., humidity 52±2%, 12 hours light-and-dark cycle having light time 7:00 to 19:00 and dark time 19:00 to 7:00) until used for an experiment. The animals were fed the mouse solid diet (F2, Funabashi farm. Funabashi, Japan) with unrestricted tap water intake, and kept in captivity for at least more than two days in a laboratory.
Any test drugs were dissolved in Ringer's solution (Fuso Yakuhin) to be used.
MSU was suspended with the suspension solution (10% of polyoxyethylene sorbitan mono-oleate (Tween 80: Nakarai Tesk) as 0.1 g per 1 mL. The animal was anesthetized with diethyl ether and after the surface of its left hind leg knee joint was wiped with 70% ethanol cotton, a porous administration of the suspension solution above noted was conducted into the cavity of let hind leg knee joint.
Pressures to both hind leg paw were measured using a paw-pressure measurement apparatus and recorded. Measurement time at respective times was 4.5 seconds. Calculated paw-pressure ratio (ppr) is a value calculated by dividing the pressure on the left hind leg by the pressure on the right hind leg according to the measured pressures on both hind legs.
The anti-nociceptive effect was evaluated quantitatively by calculating % MPE (% of maximum possible effect) according to the following formula. [formula]
In the formula, ppr 0 and ppr 1 are respective paw-pressure ratios on both hind legs before and after administration. ED50 value of anti-nociceptive activity was calculated using GraphPad Prism data-graph processing software version 4.0, San Diego, Calif., USA.
The strength of anti-nociceptive activity was represented by calculating the time-course variation of anti-nociceptive activity AUC using GraphPad Prism noted above.
Paw-pressure was measured twice at 4 hours after administration to provide ppr by calculation and the average of those values was both hind leg paw-pressure ratio before the drug administration. After the measurement of both hind leg paw-pressure before the drug administration, 0.1 mL of Ringer's solution or a test drug in Ringer's solution per 100 g rat body weight was orally administered, and then a paw-pressure was measured once every unit time after the oral administration.
Statistical processing was conducted using GraphPad Prism. After the two-way layout dispersion analysis, the hazard-ratio of P<0.05 was decided to be a significant difference according to Bonferroni post-test. The hazard-ratios were distinguished into less than 5% (P<0.05) and less than 1% (P<0.01) and represented as “*” and “**” in the same manner conducted for the Tail-flick method.

[2] = system: heat nociceptive stimulation; test: Anti-nociceptive activity test, tail-flick method; assay type: in vivo, mouse
Protocol: (1) Experimental animal, male ddy mice (Japan SLC), weighing the body weight in the range of 22 to 25 g, were used for the studies. The animals had been kept under constant conditions (room temperature 22±2° C., humidity 55±5%, 12 hours light-and-dark cycle having light time 9:00 to 21:00 and dark time 21:00 to 9:00) until used for an experiment. The animals were fed the mouse solid diet (F2, Funabashi farm. Funabashi, Japan) with unrestricted tap water intake.
SS8225-01, 02, 03 04, 05, 06, 07 and 08 as examples and SS8225-09, 10, 11 and 12 as comparison examples were used as the administered drugs. […] In addition only Liger solution was administered as an experimental control. The animals were left for 60 minutes in the plastic cage to become familiar to the environment prior to the test in which measured a latent time for each mouse before drug administration in accordance with a tail-flick method noted below. Heat was radiated to a part of each mouse tail which is 2 cm from the end of its tail. Each of heat radiation periods before beginning of tail-flick was measured as a false pain threshold. Mice which responded to the stimulation within 2.5 to 3.5 seconds were pre-selected for the test. Administration solution under one administration condition for one kind of drug was administered to one experimental animal group including 10 mice. After the body weight of each mouse was measured, each volume of the administration solution was adjusted to be 0.1 mL/10 g of mouse body weight and then the solution was administered. The administration methods were two methods of subcutaneous administration (s. c.) and oral administration (p. o.). On subcutaneous administration, the administration solution of 0.1 mL per 10 g of body weight (0.1 mL/10 g) was injected into the back of the mouse using 27 gauge needle. On oral administration, the administration solution of 0.1 mL per 10 g of body weight (0.1 mL/10 g) was administered using an oral sonde.
Heat was radiated to a part of each mouse's tail of respective experimental group, which is 2 cm from the end of its tail, at 15, 30 and 60 minutes after the drug administration according to the preset measurement interval and a latent time until respective mouse swung its tail was measured as a false pain threshold value. The maximum stimulation period (cut-off-time) was set as 10 seconds to minimize the damage to the stimulation part. The anti-nociceptive effect was evaluated quantitatively by calculating % MPE (% of maximum possible effect) according to the following formula. [formula] T1: A latent time until beginning of tail-flick before respective drug administration (seconds) T2: A latent time until beginning of tail-flick after respective drug administration (seconds) Tc: A maximum stimulation period (cut-off-time)
The graphs (FIG. 1, FIG. 3, FIG. 5, FIG. 7, FIG. 9, FIG. 11, FIG. 13, FIG. 15, FIG. 17, FIG. 19, FIG. 21, FIG. 23, FIG. 25, FIG. 27, FIG. 29, FIG. 31, FIG. 33 and FIG. 35) showing a time-course variation of % MPE were created, in which a vertical axis is an average value with a standard error (means ±S. E. M.) obtained by calculation of % MPE of respective animals of 10 mice every administration condition of respective drugs and a horizontal axis is a time after administration. After treating % MPE data of each animal of experimental groups with respective doses and % MPE data of each animal of the experimental group with a control Ringer's solution at the same measurement time every drugs using the two-way layout dispersion analysis (two-way ANOVA), the hazard-ratio of P<0.05 was decided to be a significant difference according to Bonferroni post-test.
A lasting time of anti-nociceptive activity of each drug in the present description is the lasting time of anti-nociceptive activity under the dose condition providing the longest lasting time.
ED50 is represented in the unit of mg/Kg.

[3] = rat, MSU knee model, oral 15 mg/kg
[4] = rat, MSU knee model, oral 30 mg/kg
[5] = mice, p.o., at activity-peak time, parentheses = 95% confidence limit
[6] = mice, s.c., at activity-peak time, parentheses = 95% confidence limit

With CN1CC[C@]23c4c5ccc(O)c4O[C@H]2[C@@H](O)C=C[C@H]3[C@H]1C5 [Morphine] the activity peak ([1]; rat, MSU knee model, oral) was 90 min, the “AUC of time-course variation of anti-nociceptive activity” value (“AUC … of anti-nociceptive activity” below) [1, 3] was 1724 and the “AUC … of anti-nociceptive activity” value [1, 4] was 4485. The “AUC … of anti-nociceptive activity” value ([1]; rat, MSU knee model, oral 60 mg/kg) was 13883, the ED50 ([1]; rat, MSU knee model, oral, %MPE, range in parentheses, read-out: ED50 value at activity peak) was 37.2 mg/kg and the activity lasting-time ([1]; rat, MSU knee model) was 300 min. For the same molecule, the ED50 ([2]; Mus musculus, po, mice, p.o., at activity-peak time, parentheses = 95% confidence limit, read-out: Oral ED50) was 29.9 mg/kg, the “activity-peak time after the oral administration” value ([2]; mice, p.o.) was 45 min and the “Oral ED50” value [2, 5] was 29.9 (26.37-33.95) mg/Kg. For the same molecule, the “activity-peak time after the subcutaneous administration” value ([2]; mice, s.c.) was 30 min, the “Subcutaneous ED50” value [2, 6] was 2.51 mg/kg and the “lasting time of anti-nociceptive activity” value (“lasting time” below) ([2]; p.o., dose of 67.5 mg/Kg) was 5 h. For the same molecule, the “lasting time” value ([2]; s.c., dose of 5 mg/Kg) was 1.5 h.

“Iminoethyl-[Tyr]-[D-Met(O)]-[Phe]-[N-MeβAla]-NHCH3 [SS8225-07]” was tested, and the “anti-nociceptive activity compared with morphine and oxycodone” value ([1]; knee osteoarthritis model, FIGS. 77 and 78) was “stronger than morphine, and stronger than or equal to oxycodone”, the “activity lasting-time, times longer than for morphine” value ([1]; rat, MSU knee model, oral) was 1.2 times and the activity peak ([1]; rat, MSU knee model, oral) was 120 min. The “AUC … of anti-nociceptive activity” value ([1]; rat, MSU knee model, oral 7.5 mg/kg) was 2919, the “AUC … of anti-nociceptive activity” value [1, 3] was 7894 and the “AUC … of anti-nociceptive activity” value [1, 4] was 20162. The “ED50 value at activity peak” value ([1]; rat, MSU knee model, oral, %MPE, range in parentheses) was 16.95 (3.17-90.59) mg/Kg, the “anti-nociceptive activities, times stronger than for morphine” value ([1]; rat, MSU knee model, oral, from ED50 of AUCs) was ~2.1 times and the “ED50 of AUCs” value ([1]; rat, MSU knee model, oral, range in parentheses) was 40.38 (31.08-52.48) mg/kg. The “anti-nociceptive activity lasting-times, times longer than for morphine” value ([1]; rat, MSU knee model, oral, stated after ED50 at activity peak) was 2.2 times, the activity lasting-time ([1]; rat, MSU knee model) was 360 min and the “dosage providing the same AUC, as part of morphine dosage” value ([2]; AUC of %MPE vs time, either oral or subcutaneous administration (FIG. 37, 38)) was “a half through one fiftieth”. For the same molecule, the “activity-peak time after the oral administration” value ([2]; mice, p.o.) was 180 min, the “Oral ED50” value [2, 5] was 2.51 mg/kg and the “activity-peak time after the subcutaneous administration” value ([2]; mice, s.c.) was 60 min. The “Subcutaneous ED50” value [2, 6] was 0.05 mg/kg, the “lasting time” value ([2]; p.o., dose of 10 mg/Kg) was 8 h and the “lasting time” value ([2]; s.c., dose of 0.125 mg/Kg) was 5 h.
